Reference: paper PMC8213057, “Targeting ALK2: An Open Science Approach to Developing Therapeutics for the Treatment of Diffuse Intrinsic Pontine Glioma” (Journal of Medicinal Chemistry, 2020)
“And” between values parts separate entries of the source, which are not always exact repeats. Equal values may be shown once.

Experiments:
PKCa = PKCa (Homo sapiens, UniProt P17252); assay: biochemical; conditions: read-out: % enzyme activity, 1 μM; Run 1, Run 2
TXK = molecular target: T1, TXK (Homo sapiens, UniProt P42681); conditions: 1 μM; Run 1, Run 2
T1 sequence (P42681 1-527): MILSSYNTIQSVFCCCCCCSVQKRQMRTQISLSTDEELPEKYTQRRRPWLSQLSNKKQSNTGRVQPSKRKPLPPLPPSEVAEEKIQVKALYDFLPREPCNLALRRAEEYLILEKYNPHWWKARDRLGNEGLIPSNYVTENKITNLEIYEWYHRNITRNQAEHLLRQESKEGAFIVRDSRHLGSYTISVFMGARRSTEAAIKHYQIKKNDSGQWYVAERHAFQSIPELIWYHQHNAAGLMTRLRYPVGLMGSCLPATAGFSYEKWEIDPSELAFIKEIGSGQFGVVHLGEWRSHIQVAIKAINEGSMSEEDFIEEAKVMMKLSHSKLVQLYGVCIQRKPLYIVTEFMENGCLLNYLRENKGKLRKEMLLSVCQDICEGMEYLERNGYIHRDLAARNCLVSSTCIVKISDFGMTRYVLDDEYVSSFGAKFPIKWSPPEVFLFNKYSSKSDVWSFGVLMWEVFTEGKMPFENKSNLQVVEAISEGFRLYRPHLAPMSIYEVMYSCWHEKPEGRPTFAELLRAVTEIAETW

IKKa/CHUK = molecular target: T2, IKKa/CHUK (Homo sapiens, UniProt O15111); conditions: 1 μM; Run 1, Run 2
T2 sequence (O15111 1-745): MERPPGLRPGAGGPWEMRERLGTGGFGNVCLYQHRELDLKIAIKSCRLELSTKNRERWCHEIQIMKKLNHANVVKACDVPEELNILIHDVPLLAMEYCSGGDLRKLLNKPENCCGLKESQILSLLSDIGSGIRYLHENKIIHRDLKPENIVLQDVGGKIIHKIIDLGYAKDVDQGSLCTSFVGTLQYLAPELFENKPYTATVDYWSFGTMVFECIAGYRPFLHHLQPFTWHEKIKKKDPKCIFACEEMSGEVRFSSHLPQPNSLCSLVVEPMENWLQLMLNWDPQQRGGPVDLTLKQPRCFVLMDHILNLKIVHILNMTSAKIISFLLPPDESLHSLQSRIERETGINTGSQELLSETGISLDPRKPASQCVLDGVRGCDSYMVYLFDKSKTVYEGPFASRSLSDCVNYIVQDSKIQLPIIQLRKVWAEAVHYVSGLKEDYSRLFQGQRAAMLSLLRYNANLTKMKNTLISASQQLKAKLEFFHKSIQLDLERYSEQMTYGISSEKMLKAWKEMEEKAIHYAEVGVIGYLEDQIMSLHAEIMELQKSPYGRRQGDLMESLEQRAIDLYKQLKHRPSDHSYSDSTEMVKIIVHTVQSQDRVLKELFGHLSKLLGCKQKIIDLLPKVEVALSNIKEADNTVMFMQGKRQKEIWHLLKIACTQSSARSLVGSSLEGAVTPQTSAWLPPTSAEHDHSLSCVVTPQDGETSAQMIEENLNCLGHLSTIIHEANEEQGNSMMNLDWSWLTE

ITK = molecular target: T3, ITK (Homo sapiens, UniProt Q08881); conditions: 1 μM; Run 1, Run 2
T3 sequence (Q08881 1-620): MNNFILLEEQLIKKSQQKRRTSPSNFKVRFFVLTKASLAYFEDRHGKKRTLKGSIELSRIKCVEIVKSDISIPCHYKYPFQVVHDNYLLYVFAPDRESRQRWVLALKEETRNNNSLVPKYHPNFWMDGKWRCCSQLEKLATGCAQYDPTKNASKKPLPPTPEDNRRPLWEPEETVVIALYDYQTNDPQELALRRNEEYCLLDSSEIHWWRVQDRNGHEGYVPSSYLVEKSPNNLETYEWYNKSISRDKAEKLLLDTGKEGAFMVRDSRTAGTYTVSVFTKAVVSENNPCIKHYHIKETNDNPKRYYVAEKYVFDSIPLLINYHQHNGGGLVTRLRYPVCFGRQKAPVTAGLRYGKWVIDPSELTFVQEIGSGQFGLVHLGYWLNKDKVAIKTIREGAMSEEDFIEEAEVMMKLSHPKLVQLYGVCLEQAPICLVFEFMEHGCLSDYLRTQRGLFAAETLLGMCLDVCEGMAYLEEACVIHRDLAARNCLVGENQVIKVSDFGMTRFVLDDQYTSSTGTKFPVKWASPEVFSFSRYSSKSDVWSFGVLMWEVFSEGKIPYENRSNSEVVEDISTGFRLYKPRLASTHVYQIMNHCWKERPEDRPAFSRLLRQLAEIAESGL

MLK4 = MLK4 (Homo sapiens, UniProt Q5TCX8); assay: biochemical; conditions: read-out: % enzyme activity, 1 μM; Run 1, Run 2
Chain of MLK4 (Q5TCX8 whole entry): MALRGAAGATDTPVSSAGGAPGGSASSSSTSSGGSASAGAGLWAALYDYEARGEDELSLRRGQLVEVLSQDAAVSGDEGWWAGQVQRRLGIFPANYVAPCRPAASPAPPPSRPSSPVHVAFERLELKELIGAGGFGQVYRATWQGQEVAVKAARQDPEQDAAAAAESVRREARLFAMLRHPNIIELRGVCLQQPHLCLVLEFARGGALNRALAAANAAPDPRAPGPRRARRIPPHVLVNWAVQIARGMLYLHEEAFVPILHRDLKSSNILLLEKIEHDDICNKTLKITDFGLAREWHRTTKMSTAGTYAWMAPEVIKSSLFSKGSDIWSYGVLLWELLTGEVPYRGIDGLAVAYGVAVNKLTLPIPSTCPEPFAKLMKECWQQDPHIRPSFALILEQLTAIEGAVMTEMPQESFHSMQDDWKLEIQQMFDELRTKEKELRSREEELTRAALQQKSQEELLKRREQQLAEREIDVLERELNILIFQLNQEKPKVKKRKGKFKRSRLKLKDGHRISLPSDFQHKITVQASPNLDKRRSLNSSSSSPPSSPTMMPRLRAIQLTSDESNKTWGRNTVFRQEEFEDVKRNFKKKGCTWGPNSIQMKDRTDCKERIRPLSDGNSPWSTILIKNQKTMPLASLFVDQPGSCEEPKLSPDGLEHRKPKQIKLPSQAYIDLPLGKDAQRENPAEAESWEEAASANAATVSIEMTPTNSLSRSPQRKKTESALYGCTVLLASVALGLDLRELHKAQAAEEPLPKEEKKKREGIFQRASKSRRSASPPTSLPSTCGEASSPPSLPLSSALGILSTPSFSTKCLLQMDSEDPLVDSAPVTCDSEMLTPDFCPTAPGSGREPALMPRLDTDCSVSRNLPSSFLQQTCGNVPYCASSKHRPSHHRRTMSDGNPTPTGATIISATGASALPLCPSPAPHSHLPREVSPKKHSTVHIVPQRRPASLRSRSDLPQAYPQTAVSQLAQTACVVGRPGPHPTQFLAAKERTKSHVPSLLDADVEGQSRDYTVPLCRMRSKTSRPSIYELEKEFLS

Row | Compound | remaining activity at 1 µM (PKCa) [%] | % enzyme activity (TXK) [%] | % enzyme activity (IKKa/CHUK) [%] | % enzyme activity at 1 μM (ZAK/MLTK) | % enzyme activity (ITK) [%] | remaining activity at 1 µM (MLK4) [%]
1 | COc1cc(-c2cncc(-c3ccc(N4CCN(C)CC4)cc3)c2C)cc(F)c1C(N)=O [Compound 26a, 2-Fluoro-6-methoxy-4-(4-methyl-5-(4-(4-methylpiperazin-1-yl)phenyl)pyridin-3-yl)benzamide] | 89.8 | 100.80 | 82.74 | 31.3% and 30.9% | 103.48 | 95.3
2 | COc1cc(-c2cncc(-c3ccc(N4C[C@@H](C)N(C)[C@@H](C)C4)cc3)c2C)cc(F)c1C(N)=O [Compound 26c, 2-Fluoro-6-methoxy-4-(4-methyl-5-(4-((3R,5S)-3,4,5-trimethylpiperazin-1-yl)phenyl)pyridin-3-yl)benzamide] | 90.3 | 95.85 | 85.96 | 46.6% | 100.51 | 96.2
